Active and inactive are the calls of the source. No cut-off for these calls is given here.
Key:
Assay type in all cases: functional, organism-based
[1] = system: Rattus norvegicus; test: Compound was tested for dose-dependent inhibition in increase of vascular permeability induced by intracutaneous injection of serotonin in rat at 200 mg/kg, p.o.; NI means No inhibition; design: dose 200 mg/kg
[2] = system: Mus musculus; test: Compound at 25-200 mg/kg, p.o., dose-dependently inhibited the scratching behavior induced by subcutaneous injection […]; inhibited
[3] = system: Mus musculus; test: Compound at 50-200 mg/kg, p.o, dose-dependently inhibited the increase of vascular permeability induced by intraperitoneal injection of acetic acid in mice; inhibited
[4] = system: Rattus norvegicus; test: Compound was tested for dose-dependent inhibition in increase of vascular permeability induced by intracutaneous injection of serotonin in rat at 50-200 mg/kg, p.o; Inhibited
[5] = system: Rattus norvegicus; test: Compound at 200 mg/kg peroral dose in rat showed tendency to inhibit the second phase; inhibited; design: dose 200 mg/kg
[6] = system: Rattus norvegicus; test: Compound at 200 mg/kg, p.o., also significantly inhibited the hind paw edema induced by carrageenan at first phase in rat; inhibited; design: dose 200 mg/kg
[7] = system: Rattus norvegicus; test: Compound at 50-200 mg/kg, p.o, dose-dependently inhibited the increase of vascular permeability induced by intracutaneous injection of histamine in rat; inhibited
[8] = system: Rattus norvegicus; test: Compound at 200 mg/kg peroral dose in rat showed significant suppression at second phase; suppressed; design: dose 200 mg/kg

SMILES | Activity [1] | Activity [2] | Activity [3] | Activity [4] | Activity [5] | Activity [6] | Activity [7] | Activity [8]
CC1(C)CC2C3=CCC4[C@@]5(C)CC[C@H](O[C@@H]6O[C@H](C(=O)O)[C@@H](O[C@@H]7O[C@H](CO)[C@@H](O)[C@H](O)[C@H]7O)[C@H](O)[C@H]6O[C@@H]6OC[C@@H](O)[C@H](O)[C@H]6O)[C@](C)(CO)C5CC[C@@]4(C)[C@]3(C)C[C@@H](O)[C@@]2(CO)[C@@H](O)[C@@H]1O (stereo not given in full) | inactive |  |  |  |  |  |  | 
C/C=C(/C)C(=O)O[C@H]1[C@H](OC(C)=O)[C@@]2(CO)C(CC1(C)C)C1=CCC3[C@@]4(C)CC[C@H](O[C@@H]5O[C@H](C(=O)O)[C@@H](O[C@@H]6O[C@H](CO)[C@@H](O)[C@H](O)[C@H]6O)[C@H](O)[C@H]5O[C@@H]5OC[C@@H](O)[C@H](O)[C@H]5O)[C@](C)(CO)C4CC[C@@]3(C)[C@]1(C)C[C@H]2O (stereo not given in full) |  | inhibited | inhibited | inhibited | inhibited | inhibited | inhibited | 
C/C=C(\C)C(=O)O[C@H]1[C@H](OC(C)=O)[C@@]2(CO)C(CC1(C)C)C1=CCC3[C@@]4(C)CC[C@H](O[C@@H]5O[C@H](C(=O)O)[C@@H](O[C@@H]6O[C@H](CO)[C@@H](O)[C@H](O)[C@H]6O)[C@H](O)[C@H]5O[C@@H]5O[C@H](CO)[C@@H](O)[C@H](O)[C@H]5O)[C@](C)(CO)C4CC[C@@]3(C)[C@]1(C)C[C@H]2O (stereo not given in full) |  | inhibited | inhibited | inhibited |  | inhibited | inhibited | inhibited
C/C=C(\C)C(=O)O[C@H]1[C@H](OC(C)=O)[C@@]2(CO)C(CC1(C)C)C1=CCC3[C@@]4(C)CC[C@H](O[C@@H]5O[C@H](C(=O)O)[C@@H](O[C@@H]6O[C@H](CO)[C@@H](O)[C@H](O)[C@H]6O)[C@H](O)[C@H]5O[C@@H]5OC[C@@H](O)[C@H](O)[C@H]5O)[C@](C)(CO)C4CC[C@@]3(C)[C@]1(C)C[C@H]2O (stereo not given in full) |  | inhibited | inhibited | inhibited | inhibited | inhibited | inhibited | 
CC1(C)CC2C3=CCC4[C@@]5(C)CC[C@H](O[C@@H]6O[C@H](C(=O)O)[C@@H](O[C@@H]7O[C@H](CO)[C@@H](O)[C@H](O)[C@H]7O)[C@H](O)[C@H]6O[C@@H]6O[C@H](CO)[C@@H](O)[C@H](O)[C@H]6O)[C@](C)(CO)C5CC[C@@]4(C)[C@]3(C)C[C@@H](O)[C@@]2(CO)[C@@H](O)[C@@H]1O (stereo not given in full) | inactive |  |  |  |  |  |  | 
